Values of other authors, collected in patent US9066956B2, “Vaginal ring comprising DHEA or DHEA sulfate and optionally a release-modulating agent of the active principle, useful to increase the ovarian reserve in women and to relieve symptoms associated with menopause” (Universidad de Chile, priority 2011, dated 2015).
Like-named read-outs stand apart in the source and are kept apart here.

Key:
[1] = test system: infertile women with diminished ovarian reserve; conditions: versus national U.S. IVF rates 2004

dehydroepiandrosterone sulphate [DHEA-S]
daily production of DHEA-S converted to DHEA (women): 64%

C[C@]12CC[C@H](O)CC1=CC[C@@H]1[C@@H]2CC[C@]2(C)C(=O)CC[C@@H]12 [DHEA, dehydroepiandrosterone]
Reduction of spontaneous abortions ([1]; first fertility center (U.S.)): 15.0% | Reduction of spontaneous abortions ([1]; second fertility center (Canada)): 15.2% | clinical pregnancies (women; oral DHEA 75 mg daily up to four months before IVF, control group 11%): 28% | rate of spontaneous abortions (women; oral DHEA 75 mg daily, control group 36%): 20% | increase of clinical pregnancy (women; oral DHEA versus control group): at least 150% | DHEA metabolized back to DHEA-S (by sulfatase hydroxysteroid): 13%
